System: co-cultures of HaCaT keratinocytes and neonatal primary human epidermal melanocytes
Experiment: Melanin content assay (cellular melanin content in keratinocyte-melanocyte co-cultures)
Format: cell-based
Details: 72 h treatment, average % reduction in cellular melanin content; for inhibition at 10000 µM: single active at 10 mM
Description: Neonatal primary human epidermal melanocytes were sourced from Life Technologies. Melanocytes were maintained in Medium 254 supplemented with Human Melanocyte Growth Supplement-2 (MGM).
HaCaT keratinocytes were maintained in DMEM medium containing 10% heat inactivated foetal bovine serum. All media were also supplemented with 10 U/mL penicillin G and 0.1 mg/mL streptomycin sulphate. Both cell types were maintained at 37° C. in a humidified incubator with 5% CO2 atmosphere.
Maintenance and sub-culturing of cells were carried out as per the manufacturer's instructions. For setup of co-cultures, HaCaT keratinocytes and melanocytes, each 40,000 cells were mixed (1:1 ratio) in 1 mL of a 1:1 mix of MGM:GM (KGM: EpiLife Medium supplemented with Human Keratinocyte Growth Supplement) and seeded as such per well, in 12 well Nunc plates.
Actives were prepared in media and test concentrations were added to cells along with relevant controls 24 h post seeding. After 72 h of active treatment, cell viability (using calcein method) and measurement of cellular melanin content was determined as described below.
After calcein fluorescence readings were obtained, cells were drained and fresh 0.15 mL of 1N NaOH (in 10% DMSO) per well was added. Cells were lysed by resuspension and incubated (60° C. for 1 h). Then, 0.1 mL of this lysate was transferred to a fresh 384-well plate and OD was measured at 405 nm in a TECAN M1000 plate reader (estimate of relative melanin content).

`O=C(O)CCN1CCCCC1` [1PP, 1-piperidinepropionic acid] showed an inhibition at 100 µM (single active at 100 uM) of 1%, an inhibition at 1000 µM (single active at 1 mM) of -5% and an inhibition at 10000 µM of 0%.

Molecule `NC(=O)c1cccnc1` [3-pyridinecarboxamide] has an inhibition at 10000 µM of 0%.
